Source: patent US20160340683A1, “NANOCARRIER BASED PLANT TRANSFECTION AND TRANSDUCTION” (HER MAJESTY THE QUEEN IN RIGHT OF CANADA AS REPRESENTED BY …, priority 2007, published 2016)
“Also recorded” adds a separate entry of the source. fluorescein = fluorescein label at the N-terminus

How the values were obtained:
[1] = test system: immature embryos; assay: Translocation of fluoresceinated CPPs in zygotic embryos, fluorescence microscopy; assay type: cell-based, Triticale cv AC Alta
Protocol: (§1) The embryos were isolated from spikes two weeks post-anthesis (scutellum diameter 1-2 mm). The immature seeds were surface sterilized with 70% ethanol for 30 s followed by treatment with 10% hypochlorite (Chlorex) and a drop of Tween 20, 3 min. Four washings of 1 min each were given with sterile water. The embryos were hand dissected under sterile conditions. Isolated embryos were placed on GEM medium (Eudes et al, 2003) for 24 h in dark at room temperature prior to CPP translocation studies.
Isolated and sterilized embryos (20-25) were imbibed in total volume of 420 μl permeabilization buffer (15 mM sodium chloride, 1.5 mM sodium citrate, pH 7.1) containing cellular permeabilization agent toluene/ethanol (1:4) in 1:20 ratio with permeabilization buffer. To this 2.1 μl of 1 mM fluoresceinated CPP was added to give a final concentration of 5 μM. In negative controls, the embryos were treated with FITC-dextran sulphate or M-Tat. The embryos were incubated in the permeabilization mix for 1 h in dark at room temperature, followed by two washings with permeabilization buffer. The embryos were then treated with trypsin:EDTA (0.25% solution, Sigma-Aldrich) in 1:2 ratio with permeabilization buffer for 5 min at room temperature to remove free peptide molecules. Embryos were washed two times with permeabilization buffer and subjected either for fluorescence microscopy or spectrofluorimetric analysis.

[2] = test system: isolated microspores; assay: Uptake of fluoresceinated Tat by isolated microspores; assay type: cell-based; conditions: no permeabilization
Protocol: However, permeabilization is not necessary for all cell types. FIG. 2 illustrates the uptake of fluoresceinated Tat by isolated microspores.
Isolated microspores were prepared as described by Amundsen and Eudes, 2005.

[3] = test system: isolated microspores of Triticale (variety Sunray); assay: CPP delivery of GUS enzyme into isolated microspores, GUS staining; assay type: cell-based; conditions: GUS enzyme cargo:CPP 1:4, 1 hour at 37° C., three repeats
Protocol: Triticale line Sunray grown in a growth cabinet with a photoperiod of 19 h day (intensity 300 μE m-2 s-1), and temperature 18-15° C. (day-night) with a relative humidity at about 70% was used as the donor plant material. The plants were fertilized every 2 weeks (20-20-20, 200 ppm) and treated with 2.5 ml I-1 Tilt™ (propiconazole, Syngenta) during the tillering stage and Intercept™ (0.004 g per litre of soil, Imidacloprid, Bayer) once sufficient root development was established. The first 10 tillers from each pot were harvested when the spike was at 3-4 cm, depending on the crop, from emergence from the boot. These tillers (to be used for microspore isolation) were subjected to pre-treatment in a refrigerator (4° C.) for 21 days with their bases in distilled water and their heads wrapped in aluminum foil. After 21±3 days of pre-treatment, the spikes were excised from their tillers and after an evaluation of their general appearance, only the most homogenous spikes were used. After confirming microspores at mid to bi-nucleate stage from a median floret, using acetocarmine staining, the tillers were processed for extraction.
Awns were removed with scissors in a laminar flow hood. Eight-fourteen spikes were used for microspore isolation. They were sterilized with 10% bleach (5.25% sodium hypochlorite) for 3 min followed by rinsing in sterile double distilled water four times of 1 min each with constant agitation. Outer glumes were removed and florets from all the spikes were aseptically dissected and transferred to a sterile and refrigerated 110 ml Warring blender cup (VWR international, #58983-093) containing 50 ml filter sterilized extraction buffer at 4° C. Florets were then blended twice for 7 s at low speed (18000 rpm). The slurry was then poured through a 1 mm sieve followed by pouring through a 100 μm sterile mesh (VWR International, #CA21008-950) into two 50 ml centrifuge tubes (25 ml each). The blender cup was rinsed with 50 ml extraction buffer at 4° C. and poured through the 100 μm mesh and was added to the first aliquot in the 50 ml tubes. The cells were then pelleted by centrifugation (100×g for 5 min at 4° C.) using a swinging bucket rotor. After pouring off the supernatant, the microspore-containing pellets were pooled together in one 50 ml tube and re-suspended in 50 ml cold extraction buffer. The cells were pelleted again with centrifugation (100×g for 5 min at 4° C.), the supernatant poured off and the pellet was transferred to a 15 ml tube. After re-suspending the pellet in CIMC Wash Buffer supplemented with 10 microM SS-31 peptide, it was subjected to wash and centrifugation using the above conditions. The supernatant was removed and the pellet was re-suspended in CIMC Wash buffer and centrifugation was repeated as above. The pellet was then suspended in 7 mL of 20% maltose at 4° C., layered with 1 mL of CIMC wash buffer and was centrifuged at 100 g for 13 min at 4° C. A band of microspores formed at the interface was collected in a new 15 ml tube. The cells were diluted with CIMC wash solution and subsequently collected by centrifugation at 150 g for 5 min. The supernatant was removed and the cells were finally suspended in a total volume of 1.4 ml of appropriate solution. After counting the cells using a haemocytometer, aliquots of 100,000 cells in 200 μl volume were prepared in 2 ml microcentrifuge tubes to be ready for transduction.
Peptide stock solutions were made in water at 1 μg/μl concentration. CPP (Nanocarrier) and GUS enzyme (cargo) were first prepared in separate microcentrifuge tubes. A total of 4 μg of CPP was prepared in sterile water to a final volume of 100 μl. Similarly, 1 μg of GUS enzyme was added to sterile water to a final volume of 100 μl. The contents of the two tubes were mixed together giving a ratio of 1:4 protein cargo:CPP. The complex was incubated for 30 min at room temperature (RT). Chariot (PAP1) protein delivering reagent was used as a positive control in the experiments. […]

[4] = test system: Triticale microspores; assay: DNA-protein co-delivery in microspores, GUS histochemical assay of embryos; assay type: cell-based; conditions: 2 months after transfection
Protocol: Triticale tillers for microspore isolation were kept in the refrigerator (4° C.) for 3 weeks with their bases in distilled water and their heads wrapped in aluminum foil. After 3 weeks±3 days, the mid to late uninucleate microspore stage was verified from a median floret using acetocarmine staining prior to extraction. Isolated microspore was carried in Triticale as published in Eudes and Amundsen (2005) for obtaining purified microspore suspension adjusted to 2.5×10^5 cells per ml of NPB99 medium.
The plasmid (pAct-1 GUS, ˜7.2 kb) was linearized with PstI restriction enzyme and DNA was purified by PCR product purification kit (QIAquick, Qiagen, USA). The GUS DNA was delivered following 7 different treatments (T). […]

[5] = test system: root tip, leaf tip, leaf base and coleoptile; conditions: 5 μM fluorescently labeled peptide
Protocol: Triticale seeds were washed with detergent and grown on moist cotton for one week. The root tip, leaf tip, leaf base and coleoptile were excised and incubated with 5 μM of fluorescently labeled pVEC, scrambled pVEC and transportan.

[6] = test system: immature embryos; assay: Fluorimetry analysis of relative fluorescence uptake by embryos; assay type: cell-based, Triticale cv AC Alta; conditions: permeabilized and non-permeabilized embryos
Protocol: as §1
Isolated and sterilized embryos (20-25) were imbibed in total volume of 420 μl permeabilization buffer (15 mM sodium chloride, 1.5 mM sodium citrate, pH 7.1) containing cellular permeabilization agent toluene/ethanol (1:4) in 1:20 ratio with permeabilization buffer. To this 2.1 μl of 1 mM fluoresceinated CPP was added to give a final concentration of 5 μM. […] Embryos were washed two times with permeabilization buffer and subjected either for fluorescence microscopy or spectrofluorimetric analysis.
For fluorimetric analysis, the embryos were treated with 500 μl of 1% Triton X-100 (prepared in permeabilization buffer), 30 min, at 4° C. The supernatant was collected in a fresh tube and relative fluorescence uptake by the embryos with different CPPs was estimated by fluorimeter (Biorad, Versafluor, USA Excitation 490/Emission 520).

For “FI-RKKRRQRRR-amide (fluorescein-RKKRRQRRR-NH2) [TAT-PTD]”, the “Uptake seen by fluorescence microscopy (FIG. 1)” value ([1]; in the presence of cellular permeabilizing agent (toluene)) was “most significant uptake; also recorded: distinct layer of accumulation in the scutellum and localized accumulation in the germ area”, the “Uptake seen by fluorescence microscopy (FIG. 1)” value ([1]; without cellular permeabilizing agent) was “some fluorescence” and the “Uptake of fluoresceinated peptide by isolated microspores (FIG. 2)” value [2] was “can penetrate into cells”.

“RKKRRQRRRRKKRRQRRR (TAT2) [18 amino acid dimer of the PTD of HIV Tat, reference compound]” was tested, and the “Average Transduction Efficiency” value [3] was 17.50% and the “Highest numbers of embryos that showed GUS” value [4] was 25.8%.

For “FI-GWTLNSAGYLLGKINLKALAALAKKIL-amide [Transportan]”, the “Fluorescence in excised seedling tissues” value [5] was “maximum florescence” and the “Translocation by fluorimetric analysis compared with visual observation” value [6] was “relatively greater translocation”.
